Here are results for five molecules from patent US20230121611A1, “Monohydrate Salt of Denatonium Acetate” (priority 2021, published 2023).

The nature of data set [1]: Form stability of further XRPD patterns on storage or standing (reanalysis by XRPD). To be noted: for XRPD form after standing on disc for 4 hours / XRPD form after standing overnight on disc: ambient lab conditions; for XRPD form after standing on disc for 4 hours: 4 hours on XRPD disc; for XRPD form after standing overnight on disc: room temperature. The format is physicochemical. The text has this:
(§1) It was then removed from the instrument and a portion immediately analyzed by XRPD.
The frozen sample was lyophilized on the freeze dryer until all the solvent was removed. […] This was designated as Pattern 2.
A summary of the characterization data for the samples of Pattern 5 can be found in Table 9.

Data set [2] is classed as physicochemical. The method, then: Next, methyl isobutyl ketone was added and then water. In some embodiments, a lower alkyl isobutyl ketone is used in place of methyl isobutyl ketone. In some embodiments, the lower alkyl is a C1-3 alkyl. In some embodiments, the lower alkyl is methyl or ethyl. The temperature was lowered to <10° C. The remaining solid was isolated and washed with methyl isobutyl ketone to produce the final DAM (denatonium acetate monohydrate).

The nature of data set [3]: Storage under stress conditions (temperature / relative humidity). The format is physicochemical. To be noted: for UPLC purity after storage: input purity 99.5%.
Excerpt: It also lost mass when taken to relative humidity levels of less than 10%.
It also loses mass when taken to relative humidity levels of less than 10%.
as §1

Data set [4] is described as follows: Gravimetric Vapor Sorption (GVS) experiments. Format: physicochemical. The method, then:
Several Gravimetric Vapor Sorption (GVS) experiments were carried out to investigate the behavior of DAM over a range of different relative humidity levels. […] This experiment used a similar method to GVS 1 without the steps involving 90% RH where the large mass changes were observed and equilibrium was not reached. […] Most of the mass change (1.3-1.4% increase) occurred between 0-10% RH.

SMILES strings stand for the structures. Entries after “also recorded” stand apart in the source; their conditions may differ.

Consider `CC(=O)[O-].CC[N+](CC)(CC(=O)Nc1c(C)cccc1C)Cc1ccccc1.O` [DAM Pattern 5], for which, in data set [1], the “XRPD form after standing on disc for 4 hours” value is “Conversion to Pattern 1 by XRPD” and the “XRPD form after standing overnight on disc” value was “Conversion to Pattern 1 by XRPD”. In data set [1] (listed as Pattern 5), the “XRPD form after standing on disc for 4 hours” value was “readily convert to Pattern 1; also recorded: conversion to Pattern 1; also recorded: converted to Pattern 1; also recorded: reverted to Pattern 1” and the “XRPD form after standing overnight on disc” value is “convert to Pattern 1; also recorded: reverted to Pattern 1”. Further, in data set [1] (ambient laboratory conditions), the “stability of the pattern” value is given as “metastable”. In addition, the “XRPD form after storage in closed vial” value in data set [1] (6 weeks, listed as Pattern 5) is given as “converted to Pattern 1”. In data set [1] (within a few hours), the “XRPD form under ambient laboratory conditions” value is listed as “converts to Pattern 1”.

`CC(=O)[O-].CC[N+](CC)(CC(=O)Nc1c(C)cccc1C)Cc1ccccc1` [DAA, Denatonium Acetate, anhydrous]: the degradation products entry in data set [2] was “either (A) lidocaine and benzyl acetate or it degraded to (B) 2-(diethylamino)-3-phenyl-N-(2,6-dimethylphenylpropionamide”.

Take `CC(=O)[O-].CC[N+](CC)(CC(=O)Nc1c(C)cccc1C)Cc1ccccc1` [DAM, denatonium acetate monohydrate]: in data set [3] (0% RH, open vial in GVS instrument, 2 days, acetate monohydrate), the “XRPD form after storage at 0% RH” value is given as “converted to Pattern 5; also recorded: consistent with Pattern 5; also recorded: change in form to Pattern 5”. In addition, the observation after storage result in data set [3] (25° C., 96% RH, 5 days, acetate monohydrate) was “deliquesce; also recorded: Sample had deliquesced”; in data set [3] (25° C., 96% RH, 7 days), “deliquesced”; in data set [3] (40° C., 75% RH, after 5 and 7 days), “Remained a solid after 5 and 7 days”. Besides, the XRPD after storage result in data set [3] (25° C., 96% RH, 7 days) was “Amorphous”; in data set [3] (40° C., 75% RH, 7 days), “Shows no change in form by XRPD after 7 days”. For the same molecule, the “UPLC purity after storage” value was “UPLC purity 98.9%” in data set [3] (25° C., 96% RH, 7 days) and “UPLC purity 99.4%” in data set [3] (40° C., 75% RH, 7 days). Also, the mass change is reported as 1.4% in data set [4] (GVS 2, between 0-10% RH) and 1.3-1.4% in data set [4] (GVS 3, between 0-10% RH). Further, the “sample appearance after GVS” value in data set [4] (after GVS 1 (40-90-0-90-0-40)) is on record as “sorption cycle. Sample had formed a solid mass with powdery”; in data set [4] (after GVS 2 (40-80-0-80-0-40), acetate monohydrate), “remained as a free-flowing powder; also recorded: Sample remained free flowing solid”; in data set [4] (after GVS 3 (40-0-80-0-80-0-40), acetate monohydrate) it was “remained as a free-flowing powder; also recorded: Sample remained free flowing solid”. Besides, the “XRPD post GVS” value was “Shows no change in form by XRPD post GVS 1, 2, 3” in data set [4] (post GVS 1, 2, 3); “consistent with Pattern 1” in data set [4] (post GVS 2); “consistent with Pattern 1” in data set [4] (post GVS 3). Besides, in data set [4] (relative humidity levels above 80%, acetate monohydrate), the hygroscopicity result is “ED21356-001-001-00 is very hygroscopic especially at levels”. Besides, the “mass behaviour at low humidity” value in data set [4] (relative humidity levels of less than 10%, acetate monohydrate) is listed as “lost mass; also recorded: loses mass”.

On to `CC(=O)[O-].CC[N+](CC)(CC(=O)Nc1c(C)cccc1C)Cc1ccccc1.O` [DAM Pattern 4], for which the “XRPD form after storage in closed vial” value in data set [1] (6 weeks) is “Conversion to Pattern 1 by XRPD”; in data set [1] (6 weeks, listed as Pattern 4) it was “conversion to Pattern 1”.

On to `CC(=O)[O-].CC[N+](CC)(CC(=O)Nc1c(C)cccc1C)Cc1ccccc1.O` [DAM Pattern 2], for which the “XRPD form after storage in closed vial” value in data set [1] (7 weeks) is listed as “Conversion to Pattern 1 by XRPD”; in data set [1] (7 weeks, listed as Pattern 2), “converted to Pattern 1; also recorded: consistent with Pattern 1”.
